Reference: patent US20060058312A1, “Stabilized aqueous preparation for injection” (priority 2004, published 2006)
Where two headings read alike, the source gives them in different places.

Key:
[1] = Stability test at 60° C., effect of pH value without ascorbic acid (Example 3), HPLC content; format: physicochemical; conditions: no addition of ascorbic acid; for remaining calcium levofolinate content compared with the initial value (100): 60° C.
Protocol: (§1) For the aqueous preparations obtained in (1) to (3) above, tests evaluating stability at 60° C./3 weeks were performed. The calcium levofolinate content remaining in the aqueous solution was measured using high performance liquid chromatography under the following conditions (the same were employed in the following experiments) 2 ml each of the test preparations were weighed, and 10 ml of the internal standard solution described below (the same was employed in the following experiments) were added thereto. Subsequently, water was added to adjust the total volume of the solution to 50 ml, thereby to prepare a test solution. Meanwhile, 62.5 mg of calcium levofolinate were dissolved in water so as to prepare a 25 ml solution. Then, to 10 ml of the resultant solution were added 10 ml of the internal standard solution, and the total volume of the solution was adjusted to 50 ml by adding water, thereby to prepare a standard solution. For 20 μl of the standard solution and the test solution, the content of calcium levofolinate was measured by the liquid chromatography method under the following conditions.
(§2) 1) Measurement Conditions • Detector: Ultraviolet absorptiometer (Measurement wavelength: 254 nm) • Column: A stainless tube having an internal diameter of 4.0 mm and a length of 15 cm was filled with 5 μm of octadecylsilylated silica gel for liquid chromatography. • Column temperature: A constant temperature near 45° C. • Mobile phase: The pH value of a mixed test solution containing 0.008 mol/L of disodium hydrogen phosphate solution/methanol/40% aqueous tetrabutylammonium hydroxide solution (385:110:1.3 (volume ratio)) was adjusted to 7.5 by adding phosphoric acid. • Flow rate: The flow rate was regulated so that the retention time of calcium levofolinate became about 10 minutes. • Internal standard solution: A solution prepared by adding water to 0.04 g of methyl parahydroxybenzoate so that the whole amount of solution is 100 ml.
About 80 ml of water for injection were added to a beaker (volume: 200 ml). Then, 0.56 g of sodium chloride and 0.3 g of tromethamine were added to it with bubbling of nitrogen gas, and the components were dissolved with stirring and heating to 45 to 50° C. Subsequently, 1.375 g of calcium levofolinate (1.1 g, in terms of 5-formyl-(6S)-tetrahydrofolic acid) were added, and the components were dissolved with stirring. Thereafter, the pH value of the solution was adjusted to 6.0 by adding 5% hydrochloric acid solution dropwise. A similar procedure to the above was performed to produce solutions, each having a regulated pH value of 7.0, 7.5, 7.9, 8.1, 8.3, 8.7, 9.0, 9.2, and 9.5 (1% aqueous sodium hydroxide solution was used in place of 5% hydrochloric acid solution).
Water for injection was further added to each solution to adjust the total volume of the solution to 100 ml. Subsequently, the bubbling of nitrogen gas was stopped, and each solution was filtered with a filtration filter, thereby to yield a solution for injection. Subsequently, each of nine 5 ml-glass ampules the inside space of which had been substituted by nitrogen gas was filled with 5 ml of the resultant solution for injection, and was sealed by heating.
For each aqueous preparation obtained as above, a test evaluating stability at 60° C. was performed by measuring the remaining levofolinate content by the high performance liquid chromatography method. […] In the cases of pH 6 to 7 and pH 8.7 to pH 9, an extremely excellent stabilizing effect was confirmed.

[2] = format: physicochemical; conditions: buffer, 13 mg/mL, pH 6.2
Protocol: as §1, §2
About 1100 ml of water for injection were added to a beaker. Then, 8.04 g of sodium chloride, 3.6 g of tromethamine, 3.6 g of ascorbic acid, and 1.2 g of sodium pyrosulfite were added thereto with bubbling of nitrogen gas, and the components were dissolved with stirring. To the resultant solution were added 15.62 g of calcium levofolinate, which were dissolved with stirring. Thereafter, the pH value of the solution was adjusted to 6.2 by adding 5% hydrochloric acid solution dropwise. Water for injection was further added to the solution to adjust the total volume to 1200 ml. Subsequently, the bubbling of nitrogen gas was stopped, and the solution was filtered with a filtration filter, thereby to yield a solution for injection. A 5 ml-syringe made of polypropylene, the inside space of which had been substituted by nitrogen gas, was filled with 5 ml of the resultant solution for injection, followed by steam sterilization under high pressure at 105° C. for 30 minutes. The thus-sterilized syringe was packaged together with a deoxidant, AGELESS ZP-50 (trade name, Mitsubishi Gas Chemical Company, Inc. Japan) by using a plastic film with high air impermeability.
For an aqueous preparation as obtained above, a stability test (60° C./75% RH, and 40° C./75% RH) was performed by measuring the content of calcium levofolinate remaining after storage for a certain period by the high performance liquid chromatography method.

Nc1nc(=O)c2c([nH]1)NC[C@H](CNc1ccc(C(=O)N[C@@H](CCC(=O)O)C(=O)O)cc1)N2C=O [calcium levofolinate, (6S)-N-[4-[[(2-amino-5-formyl-1,4,5,6,7,8-hexahydro-4-oxo-6-pteridinyl)methyl]amino]benzoyl]-L-glutamic acid]
remaining calcium levofolinate content compared with the initial value (100) ([1]; pH value 6.0, 1 month): 88.7 | remaining calcium levofolinate content compared with the initial value (100) ([1]; pH value 6.0, 1 week): 94.7 | remaining calcium levofolinate content compared with the initial value (100) ([1]; pH value 6.0, 2 weeks): 92.5 | remaining calcium levofolinate content compared with the initial value (100) ([1]; pH value 6.0, 3 weeks): 90.1 | calcium levofolinate content, Initial value (100) ([1]; pH value 6.0): 100 | remaining calcium levofolinate content compared with the initial value (100) ([1]; pH value 7.0, 1 month): 88.6 | remaining calcium levofolinate content compared with the initial value (100) ([1]; pH value 7.0, 1 week): 94.8 | remaining calcium levofolinate content compared with the initial value (100) ([1]; pH value 7.0, 2 weeks): 92.2 | remaining calcium levofolinate content compared with the initial value (100) ([1]; pH value 7.0, 3 weeks): 90.1 | calcium levofolinate content, Initial value (100) ([1]; pH value 7.0): 100 | remaining calcium levofolinate content compared with the initial value (100) ([1]; pH value 7.5, 1 month): 84.2 | remaining calcium levofolinate content compared with the initial value (100) ([1]; pH value 7.5, 1 week): 93.4 | remaining calcium levofolinate content compared with the initial value (100) ([1]; pH value 7.5, 2 weeks): 89.0 | remaining calcium levofolinate content compared with the initial value (100) ([1]; pH value 7.5, 3 weeks): 86.8 | calcium levofolinate content, Initial value (100) ([1]; pH value 7.5): 100 | remaining calcium levofolinate content compared with the initial value (100) ([1]; pH value 7.9, 1 month): 81.9 | remaining calcium levofolinate content compared with the initial value (100) ([1]; pH value 7.9, 1 week): 95.1 | remaining calcium levofolinate content compared with the initial value (100) ([1]; pH value 7.9, 2 weeks): 89.7 | remaining calcium levofolinate content compared with the initial value (100) ([1]; pH value 7.9, 3 weeks): 86.3 | calcium levofolinate content, Initial value (100) ([1]; pH value 7.9): 100 | remaining calcium levofolinate content compared with the initial value (100) ([1]; pH value 8.1, 1 week): 95.4 | remaining calcium levofolinate content compared with the initial value (100) ([1]; pH value 8.1, 2 weeks): 91.5 | remaining calcium levofolinate content compared with the initial value (100) ([1]; pH value 8.1, 3 weeks): 85.6 | calcium levofolinate content, Initial value (100) ([1]; pH value 8.1): 100 | remaining calcium levofolinate content compared with the initial value (100) ([1]; pH value 8.3, 1 week): 93.6 | remaining calcium levofolinate content compared with the initial value (100) ([1]; pH value 8.3, 2 weeks): 91.1 | remaining calcium levofolinate content compared with the initial value (100) ([1]; pH value 8.3, 3 weeks): 85.5 | calcium levofolinate content, Initial value (100) ([1]; pH value 8.3): 100 | remaining calcium levofolinate content compared with the initial value (100) ([1]; pH value 8.7, 1 week): 94.7 | remaining calcium levofolinate content compared with the initial value (100) ([1]; pH value 8.7, 2 weeks): 93.6 | remaining calcium levofolinate content compared with the initial value (100) ([1]; pH value 8.7, 3 weeks): 88.3 | calcium levofolinate content, Initial value (100) ([1]; pH value 8.7): 100 | remaining calcium levofolinate content compared with the initial value (100) ([1]; pH value 9.0, 1 week): 96.1 | remaining calcium levofolinate content compared with the initial value (100) ([1]; pH value 9.0, 2 weeks): 93.3 | remaining calcium levofolinate content compared with the initial value (100) ([1]; pH value 9.0, 3 weeks): 88.6 | calcium levofolinate content, Initial value (100) ([1]; pH value 9.0): 100 | remaining calcium levofolinate content compared with the initial value (100) ([1]; pH value 9.2, 1 week): 94.4 | remaining calcium levofolinate content compared with the initial value (100) ([1]; pH value 9.2, 2 weeks): 93.4 | remaining calcium levofolinate content compared with the initial value (100) ([1]; pH value 9.2, 3 weeks): 87.7 | calcium levofolinate content, Initial value (100) ([1]; pH value 9.2): 100 | remaining calcium levofolinate content compared with the initial value (100) ([1]; pH value 9.5, 1 week): 93.7 | remaining calcium levofolinate content compared with the initial value (100) ([1]; pH value 9.5, 2 weeks): 92.4 | remaining calcium levofolinate content compared with the initial value (100) ([1]; pH value 9.5, 3 weeks): 85.3 | calcium levofolinate content, Initial value (100) ([1]; pH value 9.5): 100 | remaining ratio (%) of calcium levofolinate ([2]; 0 months): 100% | remaining ratio (%) of calcium levofolinate ([2]; 0 weeks): 100% | remaining ratio (%) of calcium levofolinate ([2]; 1 month): 101.2% | remaining ratio (%) of calcium levofolinate ([2]; 2 months): 100.2% | remaining ratio (%) of calcium levofolinate ([2]; 4 months): 95.7% | remaining ratio (%) of calcium levofolinate ([2]; 6 months): 92.8% | remaining ratio (%) of calcium levofolinate ([2]; 168 h): 99.0% | remaining ratio (%) of calcium levofolinate ([2]; 336 h): 97.5% | remaining ratio (%) of calcium levofolinate ([2]; 504 h): 95.8% | remaining ratio (%) of calcium levofolinate ([2]; 672 h): 94.3%
